In patent publication US9302999B2, “Substituted triazoles as herbicides” (E. I. DU PONT DE NEMOURS AND COMPANY, priority 2012, dated 2016):

Columns and labels:
Format in all cases: in vivo
[1] = system: ryegrass, Italian (Italian ryegrass, Lolium multiflorum); assay: Test F pre-/postemergence: ryegrass, Italian
Outline: (§1)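 Visual response scores, 0 meaning no effect and 100 complete control, were assigned against untreated controls 14 to 21 days after treatment. Test chemicals in a surfactant-containing non-phytotoxic solvent were applied preemergence to seeded silt loam soil or postemergence to 2–18 cm plants in peat-based medium.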

[2] = system: crabgrass, Brazil (Brazilian crabgrass, Digitaria horizontalis); assay: Test F pre-/postemergence: crabgrass, Brazil
Description: (§2) Seeds of plant species selected from corn (Zea mays), soybean (Glycine max), velvetleaf (Abutilon theophrasti), lambsquarters (Chenopodium album), poinsettia, wild (wild poinsettia, Euphorbia heterophylla), pigweed, palmer (palmer pigweed, Amaranthus palmeri), waterhemp (common waterhemp, Amaranthus rudis), surinam grass (Brachiaria decumbens), crabgrass, Brazil (Brazilian crabgrass, Digitaria horizontalis), panicum, fall (fall panicum Panicum dichotomiflorum), crabgrass, large (large crabgrass, Digitaria sanguinalis), foxtail, giant (giant foxtail, Setaria faberii), foxtail, green (green foxtail Setaria viridis), goosegrass (Eleusine indica), ragweed (common ragweed, Ambrosia elatior), barnyardgrass (Echinochloa crus-galli), sandbur (southern sandbur, Cenchrus echinatus), arrowleaf sida (Sida rhombifolia), ryegrass, Italian (Italian ryegrass, Lolium multiflorum), dayflower, VA (Virginia (VA) dayflower, Commelina virginica), field bindweed (Convolvulus arvensis), cocklebur (common cocklebur, Xanthium strumarium), morningglory (Ipomoea coccinea), nightshade (eastern black nightshade, Solanum ptycanthum), kochia (Kochia scoparia), nutsedge, yellow (yellow nutsedge, Cyperus esculentus), johnsongrass (Sorghum halepense), smartweed (ladysthumb smartweed, Polygonum persicaria), and beggarticks (hairy beggarticks, Bidens pilosa), were planted into a silt loam soil and treated preemergence with test chemicals formulated in a non-phytotoxic solvent mixture which included a surfactant. At the same time, plants selected from these crop and weed species and also pigweed (Amaranthus retroflexus), waterhemp_RES1 (ALS/Triazine resistant common waterhemp, Amaranthus rudis) and waterhemp_RES2 (ALS/HPPD resistant common waterhemp, Amaranthus rudis) were planted in pots containing a planting medium comprising spaghnum peat moss, vermiculite, wetting agent and starter nutrients treated with postemergence applications of some of the test chemicals formulated in the same manner. Plants ranged in height from 2 to 18 cm for postemergence treatments (1- to 4-leaf stage).
(§3) Treated plants and controls were maintained in a greenhouse for 14 to 21 days, after which time all species were compared to controls and visually evaluated. Plant response ratings, summarized in Table E, are based on a scale of 0 to 100 where 0 is no effect and 100 is complete control. A dash (-) response means no test result.

[3] = system: pigweed, palmer (palmer pigweed, Amaranthus palmeri); assay: Test F pre-/postemergence: pigweed, palmer
Description: as §2, §3

[4] = system: Russian thistle (Salsola iberica); assay: Test D pre-/postemergence: Russian thistle; details: Postemergence
Outline: (§4)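 Visual control ratings (0–100) after 14–21 days, controlled environment. Preemergence on silt loam; postemergence on 2–18 cm plants.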

[5] = system: nutsedge, yellow (yellow nutsedge, Cyperus esculentus); assay: Test F pre-/postemergence: nutsedge, yellow; details: Preemergence
Description: as §2, §3

[6] = system: bluegrass (annual bluegrass, Poa annua); assay: Test D pre-/postemergence: bluegrass
Outline: as §4

[7] = system: ragweed (common ragweed, Ambrosia elatior); assay: Test F pre-/postemergence: ragweed; details: Preemergence
Description: as §2, §3

[8] = system: surinam grass (Brachiaria decumbens); assay: Test F pre-/postemergence: surinam grass; details: Preemergence
Outline: as §1

[9] = Preemergence, 16 g ai/ha, scale 0 to 100, 0 no effect, 100 complete control
[10] = Preemergence, 31 g ai/ha, scale 0 to 100, 0 no effect, 100 complete control
[11] = Preemergence, 125 g ai/ha, scale 0 to 100
[12] = Preemergence, 250 g ai/ha, scale 0 to 100
[13] = Preemergence, 62 g ai/ha, scale 0 to 100
[14] = 16 g ai/ha, scale 0 to 100, 0 no effect, 100 complete control
[15] = 31 g ai/ha, scale 0 to 100, 0 no effect, 100 complete control
[16] = Postemergence, 16 g ai/ha, scale 0 to 100
[17] = Postemergence, 250 g ai/ha, scale 0 to 100
[18] = Postemergence, 31 g ai/ha, scale 0 to 100
[19] = Postemergence, 62 g ai/ha, scale 0 to 100
[20] = Postemergence, 125 g ai/ha, scale 0 to 100

Compound | Plant response rating, Ryegrass, Italian [1, 9] | Plant response rating, Ryegrass, Italian [1, 10] | Plant response rating, Ryegrass, Italian [1, 11] | Plant response rating, Ryegrass, Italian [1, 12] | Plant response rating, Pigweed, Palmer [3, 9] | Plant response rating, Pigweed, Palmer [3, 10] | Plant response rating, Pigweed, Palmer [3, 11] | Plant response rating, Pigweed, Palmer [3, 12] | Plant response rating, Nutsedge, Yellow [5, 14] | Plant response rating, Nutsedge, Yellow [5, 15] | Plant response rating, Nutsedge, Yellow ([5]; 125 g ai/ha, scale 0 to 100) | Plant response rating, Nutsedge, Yellow ([5]; 250 g ai/ha, scale 0 to 100) | Plant response rating, Ragweed [7, 14] | Plant response rating, Ragweed [7, 15] | Plant response rating, Ragweed ([7]; 125 g ai/ha, scale 0 to 100) | Plant response rating, Ragweed ([7]; 250 g ai/ha, scale 0 to 100) | Plant response rating, Surinam Grass [8, 14] | Plant response rating, Surinam Grass [8, 15] | Plant response rating, Surinam Grass ([8]; 125 g ai/ha, scale 0 to 100) | Plant response rating, Surinam Grass ([8]; 250 g ai/ha, scale 0 to 100) | further results
Cc1nn(-c2ccc(C(F)(F)F)c(F)c2)nc1Oc1ccnc(C(F)(F)F)c1 [Compound 148] | 0 | 0 | 95 | 100 | 0 | 90 | 100 | 100 | 0 | 0 | 20 | 35 | 0 | 0 | 75 | 75 | 25 | 40 | 98 | 98 | Plant response rating, Crabgrass, Brazil [2, 9]: 100; Plant response rating, Crabgrass, Brazil [2, 10]: 100; Plant response rating, Crabgrass, Brazil [2, 13]: 100; Plant response rating, Crabgrass, Brazil [2, 11]: 100; Plant response rating, Crabgrass, Brazil [2, 12]: 100; Plant response rating: Russian Thistle ([4]; 31 g ai/ha, scale 0 to 100 (0 no effect, 100 complete control)): 75; Plant response rating: Russian Thistle ([4]; 62 g ai/ha, scale 0 to 100 (0 no effect, 100 complete control)): 85; Plant response rating: Russian Thistle ([4]; 125 g ai/ha, scale 0 to 100, 0 no effect, 100 complete control): 75; Plant response rating, Russian Thistle ([4]; 16 g ai/ha, scale 0 to 100): 65; Plant response rating: Bluegrass ([6]; Postemergence, 31 g ai/ha, scale 0 to 100 (0 no effect, 100 complete control)): 15; Plant response rating: Bluegrass ([6]; Postemergence, 62 g ai/ha, scale 0 to 100 (0 no effect, 100 complete control)): 25; Plant response rating: Bluegrass ([6]; Postemergence, 125 g ai/ha, scale 0 to 100, 0 no effect, 100 complete control): 70; Plant response rating, Bluegrass [6, 16]: 5; Plant response rating, Bluegrass [6, 9]: 0; Plant response rating, Bluegrass [6, 10]: 15; Plant response rating, Bluegrass [6, 13]: 60; Plant response rating, Bluegrass [6, 11]: 50
CCc1nn(-c2ccc(C(F)(F)F)cc2)nc1Oc1ccnc(C(F)(F)F)c1 [Compound 169] | 0 | 0 | 100 | 100 | 35 | 100 | 100 | 100 | 0 | 20 | 25 | 25 | 0 | 0 | 60 | 100 | 0 | 65 | 75 | 100 | Plant response rating, Ryegrass, Italian [1, 17]: 30; Plant response rating, Ryegrass, Italian [1, 16]: 0; Plant response rating, Ryegrass, Italian [1, 18]: 0; Plant response rating, Ryegrass, Italian [1, 19]: 20; Plant response rating, Ryegrass, Italian [1, 20]: 20; Plant response rating, Crabgrass, Brazil [2, 17]: 30; Plant response rating, Crabgrass, Brazil [2, 16]: 20; Plant response rating, Crabgrass, Brazil [2, 18]: 20; Plant response rating, Crabgrass, Brazil [2, 19]: 20; Plant response rating, Crabgrass, Brazil [2, 20]: 20; Plant response rating, Crabgrass, Brazil [2, 9]: 100; Plant response rating, Crabgrass, Brazil [2, 10]: 100; Plant response rating, Crabgrass, Brazil [2, 13]: 100; Plant response rating, Crabgrass, Brazil [2, 11]: 100; Plant response rating, Crabgrass, Brazil [2, 12]: 100; Plant response rating, Pigweed, Palmer [3, 17]: 100; Plant response rating, Pigweed, Palmer [3, 16]: 50; Plant response rating, Pigweed, Palmer [3, 18]: 50; Plant response rating, Pigweed, Palmer [3, 19]: 90; Plant response rating, Pigweed, Palmer [3, 20]: 100
CCc1nn(-c2ccc(F)cc2)nc1Cc1ccnc(C(F)(F)F)c1 [Compound 154] | 0 | 0 | 70 | 100 | 100 | 100 | 100 | 100 | 0 | 0 | 0 | 0 | 0 | 0 | 0 | 40 | 0 | 10 | 70 | 90 | Plant response rating, Crabgrass, Brazil [2, 9]: 75; Plant response rating, Crabgrass, Brazil [2, 10]: 100; Plant response rating, Crabgrass, Brazil [2, 13]: 100; Plant response rating, Crabgrass, Brazil [2, 11]: 100; Plant response rating, Crabgrass, Brazil [2, 12]: 100
Cc1nn(-c2ccc(F)cc2F)nc1Oc1ccnc(C(F)(F)F)c1 [Compound 146] | 0 | 10 | 20 | 25 | 85 | 100 | 100 | 100 | 0 | 0 | 0 | 0 | 0 | 0 | 0 | 25 | 0 | 0 | 20 | 35 | 
